{"source": "patent US10543178B2", "about": "“Dosage forms and related therapies” (PhilERA New Zealand Limited, priority 2002, dated 2020)", "key": {"[1]": {"settings": "0.67-670 mg/ml in 0.9% saline, four months at 4° C.", "method": "The concentrations of the stock formulations were: 0.67 mg/ml, 6.7 mg/ml, 67 mg/ml, and 670 mg/ml. The formulation was then administered to the rats in doses of 0.1 mg/kg, 1 mg/kg, 10 mg/kg, and 100 mg/kg to the animals respectively."}, "STZ diabetic rats": {"tested_on": "STZ diabetic rats", "assay": "Isolated working heart: cardiac function after 7 weeks oral trientine in drinking water", "settings": "for Heart weight / Left Ventricular wall thickness / Left Ventricular wall thickness per BW / Heart weight (g)/BW (g): trientine weeks 7-13"}, "[2]": {"settings": "T2DM and controls", "method": "Total metal balance studies were performed in a residential metabolic unit. Total fecal outputs were collected daily for 12 days, freeze dried, and analyzed by ICP-MS for content of Cu, Fe, Zn, Ca, Mg, Mn, Cr, […] and Se."}, "[3]": {"source_text": "Methods were as follows. Human studies were approved by institutional ethics and regulatory committees. We measured urinary metal excretion in human males with T2DM or matched non-diabetic controls, baseline information on which is shown in Table 9, in a randomized, double blind, placebo-controlled trial. Males with uncomplicated T2DM (Table 9) underwent 12-d elemental balance studies in a fully residential metabolic unit. All foods and beverages were provided. Total daily intake (method of double diets) and excretion (urinary and fecal) of trace elements (Ca, Mg, Zn, Fe, Cu, Mn, Mo, Cr and Se) were determined (ICP MS)."}, "[4]": {"settings": "cited from earlier work"}, "humans with T2DM": {"tested_on": "humans with T2DM", "assay": "6-month randomized double-blind placebo-controlled trial of oral trientine, LV mass by cardiac MRI", "settings": "6 months' trientine therapy", "excerpt": "Subjects (30-70 y) who provided written informed consent were eligible for inclusion if they had: T2DM with HbAu1c>7%; cardiac ejection fraction (echocardiography) ≥45% with evidence of diastolic dysfunction but no regional wall-motion anomalies; no new medications for more than 6 months with no change of β-blocker dose; normal electrocardiogram (sinus rhythm, normal PR Interval, normal T wave and QRS configuration, and isoelectric ST segment); and greater than 90% compliance with single-blinded placebo therapy during a 2-w run-in period. Women were required to be post-menopausal, surgically sterile, or non-lactating and non-pregnant and using adequate contraception.\nBefore randomization, potentially eligible subjects entered a 4-w single blind run-in phase of two placebo-capsules twice-daily and underwent screening echocardiography, being excluded if regional wall motion abnormalities or impaired LV systolic function (ejection fraction <50%) were detected. In addition, LV diastolic filling was assessed using mitral inflow Doppler (with pre-load reduction) to ensure patients had abnormalities of diastolic filling; no patient with normal mitral filling proceeded to randomisation. […]\nAt baseline and following 6 months' treatment, LV mass was determined using cardiac MRI, performed in the supine position with the same 1.5 T scanner (Siemens Vision) using a phased array surface coil. […]"}, "diabetic Wistar rats": {"tested_on": "diabetic Wistar rats", "settings": "six months of treatment"}, "[5]": {"method": "Following surgery and a 20 min stabilization period, the experimental protocol was started. […] Control animals received an equivalent volume of saline. Urine was collected in 15 min aliquots throughout the experiment in pre-weighed polyethylene epindorf tubes. At the end of the experiment a terminal blood sample was taken by cardiac puncture and the separated serum stored at −80° C. until future analysis. Hearts were removed through a rapid mid-sternal thoracotomy and processed as described below.\nMean arterial pressure (MAP), heart rate (HR, derived from the MAP waveform) oxygen saturation (Nonin 8600V Pulse Oximeter, Nonin Medical Inc., Minnesota, USA) and core body temperature, were all continuously monitored throughout the experiment using a PowerLab/16s data acquisition module (AD Instruments, Australia).\nFollowing surgery and a 20 min stabilization period, the experimental protocol was started. […] Urine was collected throughout the experiment in 15 min aliquots.", "remark": "listed apart in the source"}, "[6]": {"settings": "15 days", "method": "One sample of the solution was stored in the dark at 4° C. and 21° C. in the dark and a third sample was stored at 21° C. in daylight.\nThe Ultraviolet-visible spectrum of the formulation was initially measured at day 0 and then at day 15. 20 μl aliquots of sample solutions were taken at day 15. For each aliquot 960 μl of 50 mM TRIS buffer and 20p aliquot of Copper Nitrate standard (100 mM—Orion Research Inc) were added."}}, "note": "“And” between values parts separate entries of the source, which are not always exact repeats. Identical values can stand only once. “Also recorded” adds a separate entry of the source. Like-named read-outs stand apart in the source and are kept apart here."}
{"molecule": "NCCNCCNCCN", "note": "[trientine, N,N′-Bis(2-aminoethyl)-1,2-ethanediamine]", "values": [{"measurement": "Stability on storage (efficacy as copper chelator)", "setting": "[1]", "result": "remains active as a copper chelator"}, {"measurement": "Stability on storage (efficacy as copper chelator)", "setting": "[1]; listed as trientine hydrochloride", "result": "without appreciable deterioration in efficacy"}, {"measurement": "Cardiac function versus untreated diabetic controls", "setting": "STZ diabetic rats; STZ diabetic rats, oral trientine 7 weeks", "result": "improved; also recorded: global improvement in cardiac function"}, {"measurement": "Heart weight", "setting": "STZ diabetic rats; STZ/D7 diabetic rats", "result": "1.18 ± 0.24", "unit": "g"}, {"measurement": "Left Ventricular wall thickness", "setting": "STZ diabetic rats; STZ/D7 diabetic rats", "result": "3.79 ± 0.52", "unit": "mm"}, {"measurement": "Left Ventricular wall thickness per BW", "setting": "STZ diabetic rats; STZ/D7 diabetic rats", "result": "0.0127 ± 0.0027", "unit": "mm/g"}, {"measurement": "Heart weight (g)/BW (g)", "setting": "STZ diabetic rats; STZ/D7 diabetic rats, P < 0.05 vs STZ", "result": "0.0041 ± 0.0005", "unit": "g/g"}, {"measurement": "Heart weight", "setting": "STZ diabetic rats; Sham/D7 non-diabetic rats", "result": "1.58 ± 0.05", "unit": "g"}, {"measurement": "Heart weight (g)/BW (g)", "setting": "STZ diabetic rats; Sham/D7 non-diabetic rats", "result": "0.0028 ± 0.0001", "unit": "g/g"}, {"measurement": "Left Ventricular wall thickness", "setting": "STZ diabetic rats; Sham/D7 non-diabetic rats", "result": "4.03 ± 0.1", "unit": "mm"}, {"measurement": "Left Ventricular wall thickness per BW", "setting": "STZ diabetic rats; Sham/D7 non-diabetic rats", "result": "0.0072 ± 0.0003", "unit": "mm/g"}, {"measurement": "Blood glucose profile versus untreated comparison group", "setting": "STZ diabetic rats; both treated groups, p = ns", "result": "no difference"}, {"measurement": "Indicators for ventricular contraction and relaxation versus untreated diabetic group", "setting": "STZ diabetic rats; drug treated diabetic group", "result": "significantly improved"}, {"measurement": "Trientine treated diabetic hearts still functioning", "setting": "STZ diabetic rats; increasing after-load, constant pre-load, when 50% of the untreated diabetic hearts had failed", "result": "about 90%"}, {"measurement": "Effects on cardiac performance of normal animals", "setting": "STZ diabetic rats; non-diabetic rats, drug treatment", "result": "no adverse effects"}, {"measurement": "Cardiac output", "setting": "STZ diabetic rats; pre-load increased, after-load held constant, treated diabetic rats", "result": "restored to Sham values"}, {"measurement": "Effect on fecal outputs of Zn, Fe, Ca, Mg, Mn, Cr, Mb or Se", "setting": "[2]", "result": "Neither diabetes nor drug had measurable effects"}, {"measurement": "Trientine-evoked urinary Fe excretion", "setting": "[3]; T2DM and controls, oral 2.4 g", "result": "no corresponding increase"}, {"measurement": "Urinary Cu versus placebo", "setting": "[3]; both groups (T2DM and controls), day 7, oral 2.4 g", "result": "increased"}, {"measurement": "Cu excretion from T2DM versus non-diabetic controls following trientine-treatment", "setting": "[3]; day 7, 2.4-g oral dose, P<0.05", "result": "significantly greater"}, {"measurement": "Bioavailability of the active species after oral administration", "setting": "[4]", "result": "< 10", "unit": "%"}, {"measurement": "Drug-related adverse events", "setting": "humans with T2DM", "result": "No significant drug-related adverse events"}, {"measurement": "Protection of the heart from development of diabetic damage (cardiomyopathy), as judged by histology", "setting": "diabetic Wistar rats", "result": "appears to protect"}, {"measurement": "Time to recovery from blood pressure fall", "setting": "[5]; 100 mg/kg i.v.", "result": 10, "unit": "min"}, {"measurement": "Effect on blood pressure", "setting": "[5]; acute i.v. 0.1, 1, 10 and 100 mg/kg", "result": "no significant effect"}, {"measurement": "Effect of infusion on MAP and HR", "setting": "[5]; doses below the highest dose", "result": "no effect"}, {"measurement": "Time for MAP to return to pre-dose levels", "setting": "[5]; highest dose 100 mg/kg i.v.", "result": "≤ 10", "unit": "min"}, {"measurement": "Maximum decrease in MAP (blood pressure fall)", "setting": "[5]; highest dose 100 mg/kg i.v., 2 min following administration, 100 mg/kg", "result": "19±4 mmHg and 19+/−4 mmHg"}, {"measurement": "Change in ability to chelate copper on storage", "setting": "[6]; 100 mM in deionized water, 4° C. dark, 21° C. dark, 21° C. daylight", "result": "no detectable change"}, {"measurement": "Effect of room light on copper chelation", "setting": "[6]; 100 mM solution, 21° C. in daylight", "result": "no detectable detrimental effect"}]}
